Measurements taken from PubChem BioAssay (NCI).
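Abbreviation: GI50, concentration required for 50% inhibition of growth. At the TGI there is no net growth.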

What was measured:
Assay in all cases: NCI-60 cell line screen, 384-well format
LOX IMVI melanoma = system: LOX IMVI melanoma
SK-OV-3 ovarian = system: SK-OV-3 ovarian
RPMI-8226 leukemia = system: RPMI-8226 leukemia
MDA-MB-435 melanoma = system: MDA-MB-435 melanoma
NCI-H522 lung = system: NCI-H522 lung
SF-295 CNS = system: SF-295 CNS
SR leukemia = system: SR leukemia
PC-3 prostate = system: PC-3 prostate
HCC-2998 colon = system: HCC-2998 colon
IGROV1 ovarian = system: IGROV1 ovarian
RXF 393 renal = system: RXF 393 renal
U251 glioblastoma = system: U251 glioblastoma
MCF7 breast = system: MCF7 breast
KM12 colon = system: KM12 colon
786-0 renal = system: 786-0 renal
NCI-H460 NSCLC = system: NCI-H460 NSCLC
SW-620 colon = system: SW-620 colon
MALME-3M melanoma = system: MALME-3M melanoma
SK-MEL-28 melanoma = system: SK-MEL-28 melanoma
OVCAR-3 ovarian = system: OVCAR-3 ovarian
MDA-MB-231 breast = system: MDA-MB-231 breast
SK-MEL-2 melanoma = system: SK-MEL-2 melanoma
NCI-H322M lung = system: NCI-H322M lung
MDA-MB-468 breast = system: MDA-MB-468 breast
NCI-H23 lung = system: NCI-H23 lung
A549 NSCLC = system: A549 NSCLC
HS 578T breast = system: HS 578T breast
TK-10 renal = system: TK-10 renal
HL-60(TB) leukemia = system: HL-60(TB) leukemia
A498 renal = system: A498 renal
NCI-H226 lung = system: NCI-H226 lung
UACC-62 melanoma = system: UACC-62 melanoma
EKVX NSCLC = system: EKVX NSCLC
DU-145 prostate = system: DU-145 prostate
CCRF-CEM leukemia = system: CCRF-CEM leukemia
SF-268 CNS = system: SF-268 CNS
UACC-257 melanoma = system: UACC-257 melanoma
MOLT-4 leukemia = system: MOLT-4 leukemia
UO-31 renal = system: UO-31 renal
SNB-75 CNS = system: SNB-75 CNS
CAKI-1 renal = system: CAKI-1 renal
HCT-15 colon = system: HCT-15 colon
HOP-62 NSCLC = system: HOP-62 NSCLC
BT-549 breast = system: BT-549 breast
COLO 205 colon = system: COLO 205 colon
ACHN renal = system: ACHN renal
HT29 colon = system: HT29 colon
M14 melanoma = system: M14 melanoma
SNB-19 CNS = system: SNB-19 CNS
SK-MEL-5 melanoma = system: SK-MEL-5 melanoma
K-562 leukemia = system: K-562 leukemia
HCT-116 colon = system: HCT-116 colon
SN12C renal = system: SN12C renal
SF-539 CNS = system: SF-539 CNS
HOP-92 NSCLC = system: HOP-92 NSCLC
OVCAR-4 ovarian = system: OVCAR-4 ovarian
OVCAR-5 ovarian = system: OVCAR-5 ovarian

`Cc1[nH]c2ccc(F)cc2c1-c1nc2c3cccnc3c3ncccc3c2[nH]1` was tested, and the GI50 (LOX IMVI melanoma) was 0.0625 µM, the TGI (LOX IMVI melanoma) was 0.231 µM and the GI50 (SK-OV-3 ovarian) was 0.0449 µM. The TGI (SK-OV-3 ovarian) was 9.45 µM, the GI50 (RPMI-8226 leukemia) was 3.11 µM and the TGI (RPMI-8226 leukemia) was 15 µM. For the same molecule, the GI50 (MDA-MB-435 melanoma) was 0.306 µM, the TGI (MDA-MB-435 melanoma) was greater than 100 µM and the GI50 (NCI-H522 lung) was 0.244 µM. It also gave a TGI (NCI-H522 lung) of 0.852 µM, a GI50 (SF-295 CNS) of 0.303 µM and a TGI (SF-295 CNS) of 12 µM. It also gave a GI50 (SR leukemia) of 0.0192 µM, a TGI (SR leukemia) of 0.0339 µM and a GI50 (PC-3 prostate) of 0.0699 µM. It also gave a TGI (PC-3 prostate) greater than 100 µM, a GI50 (HCC-2998 colon) of 0.0242 µM and a TGI (HCC-2998 colon) greater than 100 µM. It also gave a GI50 (IGROV1 ovarian) of 0.182 µM, a TGI (IGROV1 ovarian) of 32.9 µM and a GI50 (RXF 393 renal) of 0.0314 µM. For the same molecule, the TGI (RXF 393 renal) was 0.192 µM, the GI50 (U251 glioblastoma) was 0.0637 µM and the TGI (U251 glioblastoma) was 0.71 µM. For the same molecule, the GI50 (MCF7 breast) was 0.298 µM, the TGI (MCF7 breast) was 40.3 µM and the GI50 (KM12 colon) was 0.266 µM. It also gave a TGI (KM12 colon) greater than 100 µM, a GI50 ([…]-0 renal) of 0.176 µM and a TGI (786-0 renal) of 0.586 µM. The GI50 (NCI-H460 NSCLC) was 0.367 µM, the TGI (NCI-H460 NSCLC) was 4.26 µM and the GI50 (SW-620 colon) was 0.336 µM. It also gave a TGI (SW-620 colon) greater than 100 µM, a GI50 (MALME-3M melanoma) of 0.195 µM and a TGI (MALME-3M melanoma) of 0.743 µM. The GI50 (SK-MEL-28 melanoma) was 0.272 µM, the TGI (SK-MEL-28 melanoma) was greater than 100 µM and the GI50 (OVCAR-3 ovarian) was 0.0278 µM. The TGI (OVCAR-3 ovarian) was 22.2 µM, the GI50 (MDA-MB-231 breast) was 0.228 µM and the TGI (MDA-MB-231 breast) was 2.93 µM. The GI50 (SK-MEL-2 melanoma) was 0.353 µM, the TGI (SK-MEL-2 melanoma) was 0.934 µM and the GI50 (NCI-H322M lung) was 0.125 µM. It also gave a TGI (NCI-H322M lung) of 28.5 µM, a GI50 (MDA-MB-468 breast) of 0.0745 µM and a TGI (MDA-MB-468 breast) of 0.214 µM. It also gave a GI50 (NCI-H23 lung) of 0.233 µM, a TGI (NCI-H23 lung) of 0.704 µM and a GI50 (A549 NSCLC) of 0.421 µM. For the same molecule, the TGI (A549 NSCLC) was greater than 100 µM, the GI50 (HS 578T breast) was 0.318 µM and the TGI (HS 578T breast) was 12.1 µM. It also gave a GI50 (TK-10 renal) of 0.45 µM, a TGI (TK-10 renal) of 18.8 µM and a GI50 (HL-60(TB) leukemia) of 0.0453 µM. It also gave a TGI (HL-60(TB) leukemia) of 0.176 µM, a GI50 (A498 renal) of 0.205 µM and a TGI (A498 renal) greater than 100 µM. For the same molecule, the GI50 (NCI-H226 lung) was 0.147 µM, the TGI (NCI-H226 lung) was 0.683 µM and the GI50 (UACC-62 melanoma) was 0.204 µM. For the same molecule, the TGI (UACC-62 melanoma) was 0.587 µM, the GI50 (EKVX NSCLC) was 0.122 µM and the TGI (EKVX NSCLC) was 14.2 µM. It also gave a GI50 (DU-145 prostate) of 0.0607 µM, a TGI (DU-145 prostate) of 0.413 µM and a GI50 (CCRF-CEM leukemia) of 0.0376 µM. It also gave a TGI (CCRF-CEM leukemia) of 0.136 µM, a GI50 (SF-268 CNS) of 0.025 µM and a TGI (SF-268 CNS) of 0.0831 µM. It also gave a GI50 (UACC-257 melanoma) of 0.227 µM, a TGI (UACC-257 melanoma) of 0.603 µM and a GI50 (MOLT-4 leukemia) of 0.0374 µM. For the same molecule, the TGI (MOLT-4 leukemia) was 0.151 µM, the GI50 (UO-31 renal) was 0.319 µM and the TGI (UO-31 renal) was 7.71 µM. It also gave a GI50 (SNB-75 CNS) of 0.23 µM, a TGI (SNB-75 CNS) of 0.759 µM and a GI50 (CAKI-1 renal) of 0.218 µM. It also gave a TGI (CAKI-1 renal) of 0.572 µM, a GI50 (HCT-15 colon) of 0.245 µM and a TGI (HCT-15 colon) of 29.9 µM. The GI50 (HOP-62 NSCLC) was 0.129 µM, the TGI (HOP-62 NSCLC) was 0.345 µM and the GI50 (BT-549 breast) was 0.0418 µM. For the same molecule, the TGI (BT-549 breast) was 0.254 µM, the GI50 (COLO 205 colon) was 0.0353 µM and the TGI (COLO 205 colon) was 0.141 µM. It also gave a GI50 (ACHN renal) of 0.241 µM, a TGI (ACHN renal) of 0.686 µM and a GI50 (HT29 colon) of 0.338 µM. For the same molecule, the TGI (HT29 colon) was greater than 100 µM, the GI50 (M14 melanoma) was 0.192 µM and the TGI (M14 melanoma) was 0.472 µM. The GI50 (SNB-19 CNS) was 0.241 µM, the TGI (SNB-19 CNS) was 0.883 µM and the GI50 (SK-MEL-5 melanoma) was 0.0252 µM. For the same molecule, the TGI (SK-MEL-5 melanoma) was 0.119 µM, the GI50 (K-562 leukemia) was 0.217 µM and the TGI (K-562 leukemia) was greater than 100 µM. It also gave a GI50 (HCT-116 colon) of 0.0521 µM, a TGI (HCT-116 colon) of 0.654 µM and a GI50 (SN12C renal) of 0.161 µM. It also gave a TGI (SN12C renal) of 0.397 µM, a GI50 (SF-539 CNS) of 0.125 µM and a TGI (SF-539 CNS) of 0.404 µM. It also gave a GI50 (HOP-92 NSCLC) of 0.194 µM, a TGI (HOP-92 NSCLC) of 0.742 µM and a GI50 (OVCAR-4 ovarian) of 0.096 µM. The TGI (OVCAR-4 ovarian) was greater than 100 µM, the GI50 (OVCAR-5 ovarian) was 0.298 µM and the TGI (OVCAR-5 ovarian) was 17.6 µM.
